In ChEMBL document CHEMBL3860060, “Discovery and Optimization of 1-Phenoxy-2-aminoindanes as Potent, Selective, and Orally Bioavailable Inhibitors of the Na+/H+ Exchanger Type 3 (NHE3)” (J Med Chem, 2016):

What was measured:
[1] = molecular target: T1, Sodium/hydrogen exchanger 3 (Homo sapiens, UniProt P48764); experiment: Inhibition of human NHE3 expressed in LAP1 cell assessed as intracellular pH recovery measured for 2 mins by CECF-AM dye based FLIPR assay
T1 sequence (P48764 whole entry): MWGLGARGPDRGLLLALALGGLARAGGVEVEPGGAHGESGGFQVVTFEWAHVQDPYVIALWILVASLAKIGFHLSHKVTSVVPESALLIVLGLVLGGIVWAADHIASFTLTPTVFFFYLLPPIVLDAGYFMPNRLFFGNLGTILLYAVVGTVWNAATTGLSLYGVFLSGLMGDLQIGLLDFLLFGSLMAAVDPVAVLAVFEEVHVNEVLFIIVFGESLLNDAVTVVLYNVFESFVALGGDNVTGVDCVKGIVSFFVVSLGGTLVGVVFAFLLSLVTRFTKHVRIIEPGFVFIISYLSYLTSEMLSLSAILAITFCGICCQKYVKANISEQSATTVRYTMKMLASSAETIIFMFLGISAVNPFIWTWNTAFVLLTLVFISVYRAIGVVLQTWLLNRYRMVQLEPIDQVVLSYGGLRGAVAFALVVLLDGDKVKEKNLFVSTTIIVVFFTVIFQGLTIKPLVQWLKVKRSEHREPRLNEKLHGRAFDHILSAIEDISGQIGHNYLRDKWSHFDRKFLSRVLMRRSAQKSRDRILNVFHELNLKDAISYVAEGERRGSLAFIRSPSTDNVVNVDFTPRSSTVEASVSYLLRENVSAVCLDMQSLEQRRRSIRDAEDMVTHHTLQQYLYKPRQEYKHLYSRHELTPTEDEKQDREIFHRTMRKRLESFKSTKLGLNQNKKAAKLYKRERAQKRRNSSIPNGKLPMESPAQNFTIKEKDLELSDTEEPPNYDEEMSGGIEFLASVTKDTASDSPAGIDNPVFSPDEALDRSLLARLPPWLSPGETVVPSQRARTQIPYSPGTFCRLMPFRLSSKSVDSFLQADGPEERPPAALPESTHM

[2] = Permeability in human Caco2/TC7 cells assessed as total flux at 20 uM incubated for 2 hrs by LC-MS/MS method; assay type: ADME, cell-based; settings: Caco-2, read-out: permeability
Cytochrome P450 3A4 = Cytochrome P450 3A4 (Homo sapiens, UniProt P08684); experiment: Inhibition of CYP3A4 in pooled human hepatic microsomes using testosterone substrate in presence of NADPH; assay type: ADME, Liver
Cytochrome P450 2D6 = Cytochrome P450 2D6 (Homo sapiens, UniProt P10635)
Description: Inhibition of CYP2D6 in pooled human hepatic microsomes using dextromethorphan substrate in presence of NADPH

CYP2D6 = CYP2D6 (Homo sapiens, UniProt P10635); experiment: Inhibition of CYP2D6 in pooled human hepatic microsomes at 10 uM using dextromethorphan substrate in presence of NADPH; assay type: ADME; settings: pooled human liver microsomes, probe dextromethorphan
Salmonella typhimurium = experiment: Genotoxicity in Salmonella typhimurium at 300 ug/ml by AMES II test; assay type: toxicity, organism-based; settings: salmonella enterica subsp. enterica serovar typhimurium
[3] = Drug metabolism in human hepatic microsomes assessed as compound lability by LC-MS/MS method; assay type: ADME, Microsome; settings: liver microsomes, read-out: Drug metabolism
[4] = Drug metabolism in mini pig hepatic microsomes assessed as glucuronidation by LC-MS/MS method; assay type: ADME, Sus scrofa, Liver, Microsome
[5] = molecular target: Sodium/hydrogen exchanger 1 (Homo sapiens, UniProt P19634); experiment: Inhibition of human NHE1 expressed in LAP1 cell assessed as intracellular pH recovery measured for 2 mins by CECF-AM dye based FLIPR assay
[6] = molecular target: T2, Sodium/hydrogen exchanger 2 (Homo sapiens, UniProt Q9UBY0); experiment: Inhibition of human NHE2 expressed in LAP1 cell assessed as intracellular pH recovery measured for 2 mins by CECF-AM dye based FLIPR assay
T2 sequence (Q9UBY0 whole entry): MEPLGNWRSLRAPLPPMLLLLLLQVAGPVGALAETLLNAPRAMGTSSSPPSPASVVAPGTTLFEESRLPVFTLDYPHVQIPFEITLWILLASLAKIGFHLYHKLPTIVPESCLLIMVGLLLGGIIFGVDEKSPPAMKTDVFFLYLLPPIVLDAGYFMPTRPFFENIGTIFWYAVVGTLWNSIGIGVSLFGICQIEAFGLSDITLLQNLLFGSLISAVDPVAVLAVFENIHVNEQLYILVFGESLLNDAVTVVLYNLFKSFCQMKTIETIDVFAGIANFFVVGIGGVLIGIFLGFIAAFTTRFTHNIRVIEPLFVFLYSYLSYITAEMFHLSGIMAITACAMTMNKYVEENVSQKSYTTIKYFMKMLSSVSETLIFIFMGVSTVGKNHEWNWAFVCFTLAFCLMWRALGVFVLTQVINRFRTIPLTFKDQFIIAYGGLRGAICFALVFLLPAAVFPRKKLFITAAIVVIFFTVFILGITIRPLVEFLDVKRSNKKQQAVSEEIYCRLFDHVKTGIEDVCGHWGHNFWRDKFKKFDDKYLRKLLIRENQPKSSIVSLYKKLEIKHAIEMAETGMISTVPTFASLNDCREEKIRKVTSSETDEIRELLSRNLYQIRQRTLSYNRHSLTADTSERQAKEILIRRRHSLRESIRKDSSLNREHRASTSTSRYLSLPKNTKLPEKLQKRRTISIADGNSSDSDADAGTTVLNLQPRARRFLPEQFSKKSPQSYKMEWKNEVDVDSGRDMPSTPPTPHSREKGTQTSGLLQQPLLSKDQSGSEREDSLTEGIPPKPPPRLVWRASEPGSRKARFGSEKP

[7] = Drug metabolism in human hepatic microsomes assessed as glucuronidation by LC-MS/MS method; assay type: ADME, Liver, Microsome
[8] = Drug metabolism in monkey hepatic microsomes assessed as glucuronidation by LC-MS/MS method; assay type: ADME, Macaca mulatta, Liver, Microsome; settings: rhesus monkey
[9] = Drug metabolism in dog hepatic microsomes assessed as glucuronidation by LC-MS/MS method; assay type: ADME, Canis lupus familiaris, Liver, Microsome
[10] = Drug metabolism in human hepatic microsomes assessed as compound lability in presence of CYP3A4 inhibitor ketoconazole by LC-MS/MS method; assay type: ADME, Microsome; settings: liver microsomes, with ketoconazole (CYP3A4 inhibitor), concentration not stated, read-out: Drug metabolism
[11] = molecular target: T3, Sodium/hydrogen exchanger isoform 3 (Sus scrofa, UniProt Q9XSD0); experiment: Inhibition of pig NHE3 expressed in LAP1 cell assessed as intracellular pH recovery measured for 2 mins by CECF-AM dye based FLIPR assay
T3 sequence (Q9XSD0 whole entry): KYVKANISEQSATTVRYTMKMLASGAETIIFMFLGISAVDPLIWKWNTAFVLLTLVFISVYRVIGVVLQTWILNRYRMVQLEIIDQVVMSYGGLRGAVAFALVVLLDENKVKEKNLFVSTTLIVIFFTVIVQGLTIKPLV

[12] = Drug metabolism in guinea pig hepatic microsomes assessed as glucuronidation by LC-MS/MS method; assay type: ADME, Cavia porcellus, Liver, Microsome
[13] = Drug metabolism in rat hepatic microsomes assessed as glucuronidation by LC-MS/MS method; assay type: ADME, Liver, Microsome
[14] = Drug metabolism in guinea pig hepatic microsomes assessed as compound lability by LC-MS/MS method; assay type: ADME, Cavia porcellus, Microsome; settings: liver microsomes, read-out: Drug metabolism
[15] = Inhibition of GABA-gated chloride channel (unknown origin); parameters: species or system Homo sapiens
Cytochrome P450 2C9 = Cytochrome P450 2C9 (Homo sapiens, UniProt P11712); experiment: Inhibition of CYP2C9 in pooled human hepatic microsomes using diclofenac substrate in presence of NADPH; assay type: ADME, Liver
[16] = Drug metabolism in rabbit hepatic microsomes assessed as glucuronidation by LC-MS/MS method; assay type: ADME, Oryctolagus cuniculus, Liver, Microsome
[17] = Clearance in human hepatocytes assessed per million cells at 5 uM by LC-MS/MS method; assay type: ADME, cell-based, Hepatocyte
[18] = Drug metabolism in hamster hepatic microsomes assessed as glucuronidation by LC-MS/MS method; assay type: ADME, Liver, Microsome; settings: cricetinae
[19] = Drug metabolism in pig hepatic microsomes assessed as glucuronidation by LC-MS/MS method; assay type: ADME, Sus scrofa, Liver, Microsome
[20] = Drug metabolism in hamster hepatic microsomes assessed as compound lability by LC-MS/MS method; assay type: ADME, Microsome; settings: cricetinae, liver microsomes; read-out: Drug metabolism
[21] = Inhibition of cat NHE3 expressed in LAP1 cell assessed as intracellular pH recovery measured for 2 mins by CECF-AM dye based FLIPR assay; settings: Felis catus, LAP1, 2 min
[22] = molecular target: T4, Sodium/hydrogen exchanger 5 (Homo sapiens, UniProt Q14940); experiment: Inhibition of human NHE5 expressed in LAP1 cell assessed as intracellular pH recovery measured for 2 mins by CECF-AM dye based FLIPR assay
T4 sequence (Q14940 whole entry): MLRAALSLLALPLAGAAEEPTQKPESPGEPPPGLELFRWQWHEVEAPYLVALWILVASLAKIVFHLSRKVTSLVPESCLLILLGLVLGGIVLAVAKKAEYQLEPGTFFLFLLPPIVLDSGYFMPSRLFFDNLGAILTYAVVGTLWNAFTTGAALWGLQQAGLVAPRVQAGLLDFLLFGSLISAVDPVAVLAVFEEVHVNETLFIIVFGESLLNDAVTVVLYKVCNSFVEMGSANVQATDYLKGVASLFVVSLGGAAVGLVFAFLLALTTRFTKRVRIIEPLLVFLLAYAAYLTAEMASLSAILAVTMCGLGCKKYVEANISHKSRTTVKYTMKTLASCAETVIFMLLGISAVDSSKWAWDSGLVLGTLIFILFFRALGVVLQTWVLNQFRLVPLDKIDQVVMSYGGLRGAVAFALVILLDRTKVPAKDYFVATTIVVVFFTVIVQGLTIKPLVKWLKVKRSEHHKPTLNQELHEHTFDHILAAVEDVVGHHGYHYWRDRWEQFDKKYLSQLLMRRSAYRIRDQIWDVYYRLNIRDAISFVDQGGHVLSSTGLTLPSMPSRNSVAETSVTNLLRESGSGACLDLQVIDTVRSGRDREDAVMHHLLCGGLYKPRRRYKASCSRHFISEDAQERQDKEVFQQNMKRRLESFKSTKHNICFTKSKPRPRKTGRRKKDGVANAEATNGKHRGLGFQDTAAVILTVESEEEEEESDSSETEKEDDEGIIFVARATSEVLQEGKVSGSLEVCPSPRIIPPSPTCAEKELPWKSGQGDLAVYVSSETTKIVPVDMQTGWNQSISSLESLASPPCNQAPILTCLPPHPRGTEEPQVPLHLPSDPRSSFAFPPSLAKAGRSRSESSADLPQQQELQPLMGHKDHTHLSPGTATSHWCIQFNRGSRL

[23] = Drug metabolism in rabbit hepatic microsomes assessed as compound lability by LC-MS/MS method; assay type: ADME, Oryctolagus cuniculus, Microsome; settings: liver microsomes, read-out: Drug metabolism
[24] = Drug metabolism in macaque hepatic microsomes assessed as compound lability by LC-MS/MS method; assay type: ADME, Macaca mulatta, Microsome; settings: rhesus monkey, liver microsomes; read-out: Drug metabolism
[25] = Drug metabolism in rat hepatic microsomes assessed as compound lability by LC-MS/MS method; assay type: ADME, Microsome; settings: liver microsomes, read-out: Drug metabolism
[26] = Toxicity in Xenopus laevis at 62.5 ug/ml by FETAX assay
[27] = molecular target: Sodium/hydrogen exchanger 3 (Rattus norvegicus, UniProt P26433); experiment: Inhibition of rat NHE3 expressed in LAP1 cell assessed as intracellular pH recovery measured for 2 mins by CECF-AM dye based FLIPR assay
[28] = Inhibition of PDE4 (unknown origin); parameters: species or system Homo sapiens
[29] = Drug metabolism in Landrance pig hepatic microsomes assessed as compound lability by LC-MS/MS method; assay type: ADME, Sus scrofa, Microsome; settings: Landrace, liver microsomes, read-out: Drug metabolism
[30] = Drug metabolism in mouse hepatic microsomes assessed as compound lability by LC-MS/MS method; assay type: ADME, Microsome; settings: liver microsomes, read-out: Drug metabolism
[31] = Drug metabolism in mouse hepatic microsomes assessed as glucuronidation by LC-MS/MS method; assay type: ADME, Liver, Microsome

Chain of CYP2D6 (P10635 whole entry): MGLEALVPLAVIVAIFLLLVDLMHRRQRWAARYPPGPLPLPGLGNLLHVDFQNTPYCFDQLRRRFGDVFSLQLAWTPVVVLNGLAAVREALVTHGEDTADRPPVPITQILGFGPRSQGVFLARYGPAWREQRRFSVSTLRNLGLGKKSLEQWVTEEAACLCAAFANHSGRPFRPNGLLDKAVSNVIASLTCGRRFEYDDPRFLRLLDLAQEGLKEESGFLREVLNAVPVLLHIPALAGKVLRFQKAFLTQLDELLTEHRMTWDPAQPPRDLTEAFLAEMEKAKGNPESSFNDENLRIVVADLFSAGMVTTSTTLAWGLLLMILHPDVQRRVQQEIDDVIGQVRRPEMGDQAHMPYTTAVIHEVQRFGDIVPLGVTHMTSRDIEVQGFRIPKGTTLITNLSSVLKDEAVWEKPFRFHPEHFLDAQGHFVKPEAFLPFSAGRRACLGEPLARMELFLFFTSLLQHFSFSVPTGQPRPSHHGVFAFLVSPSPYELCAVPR
Chain of Cytochrome P450 2D6 (P10635 whole entry): as above
Chain of Cytochrome P450 2C9 (P11712 whole entry): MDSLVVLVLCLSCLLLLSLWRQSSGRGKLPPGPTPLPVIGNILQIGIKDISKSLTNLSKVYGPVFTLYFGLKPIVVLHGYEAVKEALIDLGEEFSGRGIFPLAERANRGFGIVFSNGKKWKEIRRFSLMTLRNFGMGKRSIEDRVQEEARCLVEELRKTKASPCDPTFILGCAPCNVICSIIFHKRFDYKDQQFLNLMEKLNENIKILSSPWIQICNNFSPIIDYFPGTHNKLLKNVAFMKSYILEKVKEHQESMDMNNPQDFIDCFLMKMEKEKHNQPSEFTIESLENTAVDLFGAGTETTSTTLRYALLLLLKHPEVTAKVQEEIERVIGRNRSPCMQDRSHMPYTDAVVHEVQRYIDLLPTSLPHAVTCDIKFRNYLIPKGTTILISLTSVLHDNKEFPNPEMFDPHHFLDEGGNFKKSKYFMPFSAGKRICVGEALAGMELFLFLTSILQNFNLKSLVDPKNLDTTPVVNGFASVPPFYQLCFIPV
Chain of Sodium/hydrogen exchanger 3 (Rattus norvegicus, UniProt P26433) (P26433 whole entry): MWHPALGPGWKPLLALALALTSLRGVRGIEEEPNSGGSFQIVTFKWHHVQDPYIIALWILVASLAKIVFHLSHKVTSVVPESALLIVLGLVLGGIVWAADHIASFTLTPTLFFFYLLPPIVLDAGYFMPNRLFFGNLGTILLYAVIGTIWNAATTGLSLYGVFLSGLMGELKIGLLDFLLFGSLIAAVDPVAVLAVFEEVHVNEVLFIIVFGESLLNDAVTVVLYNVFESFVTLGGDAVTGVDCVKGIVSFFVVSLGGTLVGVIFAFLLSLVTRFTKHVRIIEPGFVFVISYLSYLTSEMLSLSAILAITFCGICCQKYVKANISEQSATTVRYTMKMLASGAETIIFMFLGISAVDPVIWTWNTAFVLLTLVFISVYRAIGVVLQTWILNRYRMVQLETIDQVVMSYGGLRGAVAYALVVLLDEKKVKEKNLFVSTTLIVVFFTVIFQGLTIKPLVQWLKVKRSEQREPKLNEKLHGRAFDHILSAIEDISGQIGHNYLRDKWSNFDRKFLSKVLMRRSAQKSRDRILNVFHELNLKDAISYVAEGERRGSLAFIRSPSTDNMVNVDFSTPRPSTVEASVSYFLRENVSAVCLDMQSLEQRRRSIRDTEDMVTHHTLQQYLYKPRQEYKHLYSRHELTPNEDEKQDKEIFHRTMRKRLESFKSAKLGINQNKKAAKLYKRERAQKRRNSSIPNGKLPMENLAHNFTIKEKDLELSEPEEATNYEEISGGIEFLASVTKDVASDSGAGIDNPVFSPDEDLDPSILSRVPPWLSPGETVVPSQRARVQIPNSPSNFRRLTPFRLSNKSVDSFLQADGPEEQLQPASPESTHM
Chain of Sodium/hydrogen exchanger 1 (P19634 whole entry): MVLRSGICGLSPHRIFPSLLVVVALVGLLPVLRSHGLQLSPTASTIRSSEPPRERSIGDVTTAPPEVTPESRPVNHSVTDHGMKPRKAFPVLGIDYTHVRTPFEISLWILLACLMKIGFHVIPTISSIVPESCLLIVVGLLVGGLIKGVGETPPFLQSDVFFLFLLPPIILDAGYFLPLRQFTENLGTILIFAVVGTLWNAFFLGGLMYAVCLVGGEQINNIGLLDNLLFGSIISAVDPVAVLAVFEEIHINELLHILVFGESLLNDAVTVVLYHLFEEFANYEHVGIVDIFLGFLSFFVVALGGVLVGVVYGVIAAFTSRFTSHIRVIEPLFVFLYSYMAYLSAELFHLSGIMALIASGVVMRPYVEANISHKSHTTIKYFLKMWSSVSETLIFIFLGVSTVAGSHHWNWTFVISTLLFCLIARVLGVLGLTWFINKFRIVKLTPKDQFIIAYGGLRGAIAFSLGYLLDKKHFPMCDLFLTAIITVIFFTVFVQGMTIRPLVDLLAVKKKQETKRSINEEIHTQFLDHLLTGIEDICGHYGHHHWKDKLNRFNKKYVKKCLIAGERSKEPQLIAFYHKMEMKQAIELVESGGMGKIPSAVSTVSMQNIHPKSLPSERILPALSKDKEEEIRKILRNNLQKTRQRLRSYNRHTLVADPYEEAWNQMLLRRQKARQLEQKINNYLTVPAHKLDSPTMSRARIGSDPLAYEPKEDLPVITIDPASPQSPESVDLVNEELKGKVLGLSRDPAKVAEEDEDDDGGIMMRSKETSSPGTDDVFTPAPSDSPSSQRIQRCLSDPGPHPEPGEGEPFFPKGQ
Chain of Cytochrome P450 3A4 (P08684 whole entry): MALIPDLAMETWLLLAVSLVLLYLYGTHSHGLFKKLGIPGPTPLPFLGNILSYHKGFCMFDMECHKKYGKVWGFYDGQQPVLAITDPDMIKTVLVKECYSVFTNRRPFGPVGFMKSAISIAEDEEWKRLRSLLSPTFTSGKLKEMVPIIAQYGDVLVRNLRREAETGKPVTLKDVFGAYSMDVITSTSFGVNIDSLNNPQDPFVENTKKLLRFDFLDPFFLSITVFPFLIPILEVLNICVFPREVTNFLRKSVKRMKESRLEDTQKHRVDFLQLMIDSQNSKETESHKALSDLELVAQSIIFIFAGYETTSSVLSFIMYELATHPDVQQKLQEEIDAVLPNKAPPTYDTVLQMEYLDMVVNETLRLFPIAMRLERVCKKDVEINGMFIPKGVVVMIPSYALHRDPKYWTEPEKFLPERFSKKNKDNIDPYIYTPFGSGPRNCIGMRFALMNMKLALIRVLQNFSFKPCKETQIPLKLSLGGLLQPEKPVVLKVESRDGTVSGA

Q: Which IC50 [1] does the source give for `Cc1nnc(C)n1-c1ccc(O[C@H]2c3cc(Cl)cc(Cl)c3C[C@@H]2N2CC[C@@H](O)C2)c(F)c1` here?
A: 34 nM

Q: What about the Papp at 2 h, 20 µM [2] of the same molecule?
A: 2.8 ×10⁻⁶ cm/s

Q: And the IC50 (Cytochrome P450 3A4)?
A: > 50000 nM

Q: What about the IC50 (Cytochrome P450 2D6) of the same molecule?
A: > 10000 nM

Q: What about the inhibition at 10 µM (CYP2D6) of the same molecule?
A: 17%

Q: What does the source list for `Cc1nnc(C)n1-c1ccc(O[C@H]2c3cc(Cl)cc(Cl)c3C[C@@H]2N2CC[C@@H](O)C2)c(F)c1.Cl`?
A: Activity (Salmonella typhimurium): Non-Toxic; metabolised [3]: 25%; Drug metabolism [4]: Metabolite_Detected; IC50 [5]: > 100000 nM; IC50 [6]: > 100000 nM; Drug metabolism [7]: Metabolite_Notdetected; Drug metabolism [8]: Metabolite_Detected; Drug metabolism [9]: Metabolite_Notdetected; metabolised [10]: 5%; IC50 [11]: 7.8 nM; Drug metabolism [12]: Metabolite_Notdetected; Drug metabolism [13]: Metabolite_Notdetected; metabolised [14]: 25%; IC50 [15]: 12000 nM; IC50 (Cytochrome P450 2C9): 900 nM; Drug metabolism [16]: Metabolite_Notdetected; CLH [17]: 0.12 mL/h; Drug metabolism [18]: Metabolite_Notdetected; Drug metabolism [19]: Metabolite_Detected; metabolised [20]: > 60%; IC50 [21]: 6.1 nM; IC50 [22]: 291 nM; metabolised [23]: 25%; metabolised [24]: > 60%; metabolised [25]: 25%; Activity [26]: Non-Toxic; IC50 [27]: 10.2 nM; IC50 [28]: 6600 nM; metabolised [29]: 25%; metabolised [30]: 25%; Drug metabolism [31]: Metabolite_Notdetected

Q: With `Cc1nnc(C)n1-c1ccc(O[C@H]2c3cc(Cl)cc(Cl)c3C[C@@H]2N2CCCN(C)CC2)cc1` as the molecule, how does the IC50 [1] read?
A: 17 nM

Q: And the Papp at 2 h, 20 µM [2]?
A: 0.2 ×10⁻⁶ cm/s

Q: And the IC50 (Cytochrome P450 2D6)?
A: > 10000 nM

Q: What about the inhibition at 10 µM (CYP2D6) of the same molecule?
A: 22%
